{
  "source": "patent US20150368230A1",
  "about": "“RADIOLABELED QUINAZOLINE DERIVATIVES” (priority 2013, published 2015)",
  "key": {"[1]": {"assay": "Metabolite analysis in plasma after injection of tracer", "format": "in vivo, Balb/C mice", "conditions": "for Parent (%): plasma", "experimental": "The mice were sacrificed at 15 (n=4) and 45 (n=4) min post-injection. At these time points, about 1.5 mL of blood was collected via a heart puncture. […] The cartridge was washed with 5 mL of H2O to collect polar radioactive metabolites. Thereafter, the tC2 Sep-Pak cartridge was eluted with 2 mL of MeOH and 1 mL of H2O to collect the mixture of apolar metabolites. […] HPLC was performed on a Dionex Ultimate 3000 system, equipped with a 1 mL loop. As a stationary phase a Phenomenex Gemini C18, 250×10 mm, 5 μm was used."}, "[2]": {"tested_on": "A549 xenograft", "assay": "Biodistribution studies, A549 tumor bearing mice", "format": "in vivo, nude mice (nu/nu)", "conditions": "5 minutes p.i.", "experimental": "(§1) The mice were sacrificed and dissected at 5, 30, 60 and 120 minutes post-injection. Blood, urine, skin, left tumor, right tumor, muscle, heart, lung, liver, kidney and brain were collected, weighed and counted for radioactivity in a Wallac Compugamma 1210 counter (n=3 for each time point). Biodistribution data are expressed as percentage of injected dose per gram (% ID/g) tissue for each organ (FIG. 2)."}, "[3]": {"tested_on": "H1975 xenograft", "assay": "Biodistribution studies, H1975 tumor bearing mice", "format": "in vivo, nude mice (nu/nu)", "conditions": "5 minutes p.i.", "experimental": "as §1"}, "[4]": {"tested_on": "HCC827 xenograft", "assay": "Biodistribution studies, HCC827 tumor bearing mice", "format": "in vivo, nude mice (nu/nu)", "conditions": "5 minutes p.i.", "experimental": "as §1"}, "[5]": {"tested_on": "A549, H1975 or HCC827 xenografts", "assay": "Biodistribution studies, statements for all investigated tumor types", "format": "in vivo, nude mice (nu/nu)", "experimental": "as §1"}, "[6]": {"tested_on": "A549 xenograft", "assay": "Dynamic PET imaging, A549 xenograft", "format": "in vivo, nude mice", "conditions": "A549 (insensitive), no blocking", "experimental": "(§2) Dynamic PET imaging was performed on three cancer xenograft (A549, H1975 and HCC827) lines in nude mice. Each mouse (n=3) carried one tumor of the same cancer xenograft line, which were located on the left or right flank. Imaging was performed for a duration of 120 min using a double-LSO/LYSO layer high-resolution research tomograph (HRRT; CTI/Siemens, Knoxville, Tenn., USA). The mice were anesthetized with 4% and 2% isoflurane in 1 L·min^−1 oxygen for induction and maintenance, respectively. First, for attenuation and scatter correction, a transmission scan was acquired using a 740-MBq two-dimensional (2D) fan-collimated ^137Cs (662 keV) moving point source. […] Positron emission scans were acquired in list mode and rebinned into the following frame sequence: 10×60 s, 4×300 s, and 9×600 s. After 120 min, [^18F]FDG was administered (I.V. ocular plexus) to the mice followed by scanning for another 60 min. Following corrections for decay, dead time, scatter and randoms, scans were reconstructed using an iterative 3D ordered-subsets weighted least-squares analysis (3D-OSWLS). Point source resolution varied across the field of view from approximately 2.3 to 3.2-mm full width at half maximum in the transaxial direction and from 2.5 to 3.4 mm in the axial direction. Post-filtering was not performed after reconstruction."}, "[7]": {"tested_on": "H1975 xenograft", "assay": "Dynamic PET imaging, H1975 xenograft", "format": "in vivo, nude mice", "conditions": "H1975 (insensitive), no blocking", "experimental": "as §2"}, "[8]": {"assay": "PET imaging with cold afatinib added to the tracer injection", "format": "in vivo, mice", "conditions": "cold dose of 100 ng afatinib added", "description": "Showing that imaging of the tumor should be done at high specific activity."}, "[9]": {"tested_on": "P-gp", "assay": "PET imaging with P-gp blocking by tariquidar"}},
  "data": [
    {"molecule": "CN(C)C/C=C/C(=O)Nc1cc2c(Nc3ccc([18F])c(Cl)c3)ncnc2cc1O[C@H]1CCOC1", "note": "[[^18F]afatinib, [^18F](S,E)-N-(4-((3-chloro-4-fluorophenyl)amino)-7-((tetrahydrofuran-3-yl)oxy)quinazolin-6-yl)-4-(dimethylamino)but-2-enamide]", "values": [
      {"measurement": "in vivo stability of the tracer", "setting": "[1]; metabolic profile of table 1", "value": "excellent in vivo stability"},
      {"measurement": "Parent (%)", "setting": "[1]; 15 min p.i.", "value": "87.5 ± 0.8", "unit": "%"},
      {"measurement": "Parent (%)", "setting": "[1]; 45 min p.i.", "value": "83.3 ± 1.3", "unit": "%"},
      {"measurement": "blood level of the tracer", "setting": "[2]", "value": 2.17, "unit": "% ID/g"},
      {"measurement": "blood level of the tracer", "setting": "[3]", "value": 1.59, "unit": "% ID/g"},
      {"measurement": "blood level of the tracer", "setting": "[4]", "value": 1.56, "unit": "% ID/g"},
      {"measurement": "uptake in the metabolic organs (kidney and liver)", "setting": "[5]; mouse, in vivo", "value": "rapid and high uptake"},
      {"measurement": "activity remained in the tumor", "setting": "[5]; tumors, 120 minutes p.i.", "value": "around 1 % ID/g"},
      {"measurement": "uptake in tumor compared to background", "setting": "[6]", "value": "hardly an increase of uptake in the tumors compared to the background"},
      {"measurement": "uptake in tumor compared to background", "setting": "[7]", "value": "hardly an increase of uptake in the tumors compared to the background"},
      {"measurement": "tumor uptake with cold afatinib co-injected", "setting": "[8]", "value": "reduced to background levels"},
      {"measurement": "brain uptake", "setting": "[9]; P-gp active (no block)", "value": "washed out from the brain"},
      {"measurement": "brain uptake", "setting": "[9]; P-gp blocked with tariquidar", "value": "remains in the brain"},
      {"measurement": "P-gp substrate status", "setting": "[9]; absolute tumor uptake increased when P-gp blocked", "value": "substrates"},
      {"measurement": "washout after P-gp blocking", "setting": "[9]; tumor, tariquidar block", "value": "hardly shows any washout"}
    ]}
  ]
}
